Assay results as given in patent US6423689B1, “Peptidyl calcium channel blockers” (Warner-Lambert Company, priority 1997, dated 2002).

These molecules were tested against T1, N-type Ca2+ channels in IMR-32 cells (Homo sapiens, UniProt Q00975) (assay: Inhibition of N-type calcium flux in IMR-32 cells (Indo-1 fluorescence, nitrendipine present)). Details: 1 μM.
T1 construct: host or cells: IMR-32 cells, differentiated with dibutyryl cAMP and bromodeoxyuridine
Type: cell-based
Experimental: Measurement of N-type Ca^2+ Channel Blocking Potencies of Compounds in IMR-32 Cells Using the Fluorescent Ca^2+ Indicator Indo-1
IMR-32 cells are a human tumoral cell line of neural origin. […] Calcium flux into these cells may be induced by stimulation with elevated potassium concentrations. The L-channel component of calcium flux may be blocked by adding 5 μM nitrendipine. The remaining component of calcium entry into the IMR-32 cells is due to calcium flux through N-type calcium channels. Intracellular calcium concentrations are measured using the fluorescent calcium indicator Indo 1. The effect of drug concentration on calcium uptake is studied.
The IMR-32 cell line was obtained from the American Type Culture Collection (Rockville, Md.). Cells were grown in Eagle's Minimum Essential Medium with Eagle's salts supplemented with 10% fetal bovine serum, 2 mM L-Gln and antibiotic/antimycotic mixture (Gibco). […] After 7 to 13 days of differentiation, cells were detached using 0.5 mM EDTA and loaded with 5 μM Indo-1 acetoxymethyl ester (Molecular Probes, Eugene, OR) at […] for 45 minutes. Loaded cells were washed twice, resuspended (˜10^7 cells/mL) in assay buffer (10 mM HEPES/Tris pH 7.4 in Hank's Balanced Salt Solution without bicarbonate or phenol red containing 0.5% bovine serum albumin) and kept on ice until use. Fluorescence measurements were carried out in a Photon Technology International (PTI, South Brunswick, N.J.) Model RF-F3004 spectrofluorometer with dual emission monochromators using excitation at 350 nm and emission at 400 and 490 nm. The instrument was equipped with a thermostated cuvette holder with stirring capabilities as well as with a computer-controlled pump which allowed for reagent addition during measurement. Instrument control and data collection was done by PTI's OSCAR software running on an IBM compatible computer. […] Samples were incubated for 10 minutes at 30° C. and then aliquoted into three 10×10 mm disposable acrylic cuvettes. Emission signals at 400 and 490 nm were acquired from each cuvette at 30° C. for 50 seconds. At 20 seconds after the start of reading, cells were depolarized by the addition of 160 μL of stimulation solution (1M KCl, 68 mM CaCl2) to the cuvette via the computer-controlled pump. Ratio of dual emission signals (400 nm/490 nm), which is proportional to intracellular Ca^2+ concentration, was plotted against time, and the difference between maximal response after stimulation and basal value (before stimulation) was determined. Values obtained in this way were plotted as a function of drug concentration. IC50 values of test compounds were calculated by fitting a four-parameter logistic function to the data using the least squares method.

T1 sequence (Q00975 whole entry): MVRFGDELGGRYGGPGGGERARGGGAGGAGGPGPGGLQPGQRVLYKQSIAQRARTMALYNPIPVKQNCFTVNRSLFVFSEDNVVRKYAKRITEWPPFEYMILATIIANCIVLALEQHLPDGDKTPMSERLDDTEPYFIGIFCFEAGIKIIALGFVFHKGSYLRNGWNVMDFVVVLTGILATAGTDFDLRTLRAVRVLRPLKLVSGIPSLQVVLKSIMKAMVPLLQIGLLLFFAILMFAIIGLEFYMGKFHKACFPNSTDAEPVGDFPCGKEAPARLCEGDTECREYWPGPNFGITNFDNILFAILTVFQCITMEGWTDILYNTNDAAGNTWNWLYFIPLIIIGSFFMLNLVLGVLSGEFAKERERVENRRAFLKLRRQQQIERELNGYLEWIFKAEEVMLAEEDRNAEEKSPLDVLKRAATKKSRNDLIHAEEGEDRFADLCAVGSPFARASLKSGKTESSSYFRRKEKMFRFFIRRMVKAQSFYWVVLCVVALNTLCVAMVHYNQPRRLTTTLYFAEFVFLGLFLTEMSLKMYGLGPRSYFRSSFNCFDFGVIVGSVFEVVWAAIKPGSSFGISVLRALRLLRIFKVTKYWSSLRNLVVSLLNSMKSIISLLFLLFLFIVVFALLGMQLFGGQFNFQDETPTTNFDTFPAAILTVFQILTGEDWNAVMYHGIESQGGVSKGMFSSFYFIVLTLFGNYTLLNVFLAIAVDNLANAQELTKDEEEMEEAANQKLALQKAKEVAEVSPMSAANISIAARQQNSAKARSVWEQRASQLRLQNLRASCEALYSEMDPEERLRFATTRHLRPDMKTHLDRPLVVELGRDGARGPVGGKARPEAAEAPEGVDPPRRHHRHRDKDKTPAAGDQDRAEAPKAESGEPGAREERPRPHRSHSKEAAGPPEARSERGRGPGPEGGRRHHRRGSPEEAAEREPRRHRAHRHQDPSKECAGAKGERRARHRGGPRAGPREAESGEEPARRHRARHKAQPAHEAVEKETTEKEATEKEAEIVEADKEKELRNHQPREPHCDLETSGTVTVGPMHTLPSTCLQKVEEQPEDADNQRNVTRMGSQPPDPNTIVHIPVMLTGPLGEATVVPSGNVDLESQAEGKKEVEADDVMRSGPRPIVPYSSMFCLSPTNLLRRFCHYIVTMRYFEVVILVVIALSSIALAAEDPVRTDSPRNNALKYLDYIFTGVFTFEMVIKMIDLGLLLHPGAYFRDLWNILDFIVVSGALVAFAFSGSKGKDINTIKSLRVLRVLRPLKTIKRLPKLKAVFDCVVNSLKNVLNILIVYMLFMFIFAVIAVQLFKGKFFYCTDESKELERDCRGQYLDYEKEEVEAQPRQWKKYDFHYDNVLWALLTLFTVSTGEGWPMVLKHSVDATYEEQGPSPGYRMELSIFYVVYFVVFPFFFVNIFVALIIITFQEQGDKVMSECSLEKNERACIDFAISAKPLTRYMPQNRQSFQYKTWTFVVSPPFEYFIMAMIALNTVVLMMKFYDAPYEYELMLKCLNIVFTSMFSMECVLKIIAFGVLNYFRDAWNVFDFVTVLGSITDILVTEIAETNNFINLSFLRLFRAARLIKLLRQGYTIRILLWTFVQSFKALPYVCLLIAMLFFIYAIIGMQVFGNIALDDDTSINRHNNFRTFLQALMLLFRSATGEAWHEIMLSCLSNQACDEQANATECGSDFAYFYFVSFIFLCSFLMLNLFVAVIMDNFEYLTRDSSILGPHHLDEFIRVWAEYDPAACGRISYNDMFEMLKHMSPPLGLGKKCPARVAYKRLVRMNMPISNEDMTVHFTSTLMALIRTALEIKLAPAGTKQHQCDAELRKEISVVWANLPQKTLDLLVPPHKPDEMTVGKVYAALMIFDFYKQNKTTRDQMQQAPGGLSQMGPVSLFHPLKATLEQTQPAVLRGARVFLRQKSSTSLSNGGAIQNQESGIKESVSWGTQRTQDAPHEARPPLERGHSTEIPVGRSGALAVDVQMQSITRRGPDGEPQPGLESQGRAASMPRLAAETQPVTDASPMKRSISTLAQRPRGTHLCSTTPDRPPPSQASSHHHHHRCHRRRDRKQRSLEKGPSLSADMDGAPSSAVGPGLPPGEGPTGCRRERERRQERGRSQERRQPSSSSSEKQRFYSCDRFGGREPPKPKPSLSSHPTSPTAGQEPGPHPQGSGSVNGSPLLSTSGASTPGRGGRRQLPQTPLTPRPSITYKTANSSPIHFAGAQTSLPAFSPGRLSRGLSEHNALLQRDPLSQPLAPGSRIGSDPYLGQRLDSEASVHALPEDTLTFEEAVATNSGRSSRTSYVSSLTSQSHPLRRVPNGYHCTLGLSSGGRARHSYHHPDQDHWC
T1 sequence (P54289 25-956 partner limits assumed): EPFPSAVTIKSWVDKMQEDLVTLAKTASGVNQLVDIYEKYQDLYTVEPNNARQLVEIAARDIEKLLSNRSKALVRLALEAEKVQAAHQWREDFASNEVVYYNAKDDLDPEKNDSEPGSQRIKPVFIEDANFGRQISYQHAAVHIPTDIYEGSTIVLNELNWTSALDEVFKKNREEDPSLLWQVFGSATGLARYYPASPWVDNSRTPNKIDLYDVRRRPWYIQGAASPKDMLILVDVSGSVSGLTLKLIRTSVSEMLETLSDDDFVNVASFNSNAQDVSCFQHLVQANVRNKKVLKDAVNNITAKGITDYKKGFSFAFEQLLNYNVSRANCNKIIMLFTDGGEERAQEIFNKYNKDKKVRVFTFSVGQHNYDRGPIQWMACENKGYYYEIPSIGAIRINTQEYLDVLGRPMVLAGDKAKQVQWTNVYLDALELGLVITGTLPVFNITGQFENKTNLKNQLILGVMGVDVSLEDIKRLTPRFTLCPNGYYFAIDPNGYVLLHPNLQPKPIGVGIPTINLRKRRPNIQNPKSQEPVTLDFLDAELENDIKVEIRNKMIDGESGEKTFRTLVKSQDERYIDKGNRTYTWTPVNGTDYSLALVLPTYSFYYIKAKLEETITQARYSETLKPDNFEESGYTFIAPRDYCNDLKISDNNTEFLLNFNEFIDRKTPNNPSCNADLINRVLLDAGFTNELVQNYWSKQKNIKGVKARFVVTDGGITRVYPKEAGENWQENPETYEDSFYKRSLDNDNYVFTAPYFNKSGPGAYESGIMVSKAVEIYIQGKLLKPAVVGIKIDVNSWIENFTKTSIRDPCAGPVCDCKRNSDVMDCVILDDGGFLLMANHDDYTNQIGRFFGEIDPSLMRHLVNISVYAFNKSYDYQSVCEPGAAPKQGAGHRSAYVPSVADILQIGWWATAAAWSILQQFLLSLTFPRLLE
T1 sequence (P54289 957-1103 partner limits assumed): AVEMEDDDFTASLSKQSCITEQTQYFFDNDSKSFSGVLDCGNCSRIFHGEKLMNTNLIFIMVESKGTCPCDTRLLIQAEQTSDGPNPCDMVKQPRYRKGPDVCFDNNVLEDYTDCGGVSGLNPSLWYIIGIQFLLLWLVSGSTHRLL
T1 sequence (P54284 whole entry partner): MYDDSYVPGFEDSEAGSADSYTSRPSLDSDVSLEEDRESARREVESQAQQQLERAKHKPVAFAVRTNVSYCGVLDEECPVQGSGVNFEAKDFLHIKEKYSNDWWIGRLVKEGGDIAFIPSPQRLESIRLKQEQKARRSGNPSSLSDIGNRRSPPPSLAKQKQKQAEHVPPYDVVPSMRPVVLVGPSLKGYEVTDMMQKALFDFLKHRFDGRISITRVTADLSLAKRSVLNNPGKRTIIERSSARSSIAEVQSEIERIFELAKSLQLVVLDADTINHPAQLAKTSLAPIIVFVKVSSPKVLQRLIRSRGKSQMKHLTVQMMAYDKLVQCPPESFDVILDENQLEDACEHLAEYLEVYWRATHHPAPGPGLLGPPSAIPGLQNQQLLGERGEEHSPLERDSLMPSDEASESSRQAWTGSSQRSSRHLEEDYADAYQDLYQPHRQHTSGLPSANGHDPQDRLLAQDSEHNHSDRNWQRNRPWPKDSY

| Inhibition of Calcium Flux in IMR-32 Cells % Inhibition at 1 μM | Compound |
| --- | --- |
| 28% | CC(C)C[C@H](NC(=O)NC1CC1c1ccccc1)C(=O)N[C@@H](Cc1ccc(OCc2ccccc2)cc1)C(=O)OC(C)(C)C (relative stereo) [Example 75, [S-(R*,R*)]-3-(4-Benzyloxy-phenyl)-2-{4-methyl-2-[3-(2-phenyl-cyclopropyl)-ureido]-pentanoylamino}-propionic acid tert-butyl ester] |
| 27% | CC(C)C[C@H](NC(=O)Nc1cccc(C(F)(F)F)c1)C(=O)N[C@@H](Cc1ccc(OCc2ccccc2)cc1)C(=O)OC(C)(C)C (relative stereo) [Example 76, [S-(R*,R*)]-3-(4-Benzyloxy-phenyl)-2-{4-methyl-2-[3-(3-trifluoromethyl-phenyl)-ureido]-pentanoylamino}-propionic acid tert-butyl ester] |
| 24% | CC(C)C[C@H](NC(=O)Nc1ccc(Cl)c(C(F)(F)F)c1)C(=O)N[C@@H](Cc1ccc(OCc2ccccc2)cc1)C(=O)OC(C)(C)C (relative stereo) [Example 78, [S-(R*,R*)]-3-(4-Benzyloxy-phenyl)-2-{2-[3-(4-chloro-3-trifluoromethyl-phenyl)-ureido]-4-methyl-pentanoylamino}-propionic acid tert-butyl ester] |
| 23% | CC(C)C[C@H](NC(=O)Nc1cccc2ccccc12)C(=O)N[C@@H](Cc1ccc(OCc2ccccc2)cc1)C(=O)OC(C)(C)C (relative stereo) [Example 79, [S-(R*,R*)]-3-(4-Benzyloxy-phenyl)-2-[4-methyl-2-(3-naphthalen-1-yl-ureido)-pentanoylamino]-propionic acid tert-butyl ester] |
| 40% | CC(C)C[C@H](NC(=O)Nc1ccc(Cl)cc1)C(=O)N[C@@H](Cc1ccc(OCc2ccccc2)cc1)C(=O)OC(C)(C)C (relative stereo) [Example 80, [S-(R*,R*)]-3-(4-Benzyloxy-phenyl)-2-{2-[3-(4-chloro-phenyl)-ureido]-4-methyl-pentanoylamino}-propionic acid tert-butyl ester] |
| 32% | CC(C)C[C@H](NC(=O)Nc1cccc(Cl)c1Cl)C(=O)N[C@@H](Cc1ccc(OCc2ccccc2)cc1)C(=O)OC(C)(C)C (relative stereo) [Example 81, [S-(R*,R*)]-3-(4-Benzyloxy-phenyl)-2-{2-[3-(2,3-dichloro-phenyl)-ureido]-4-methyl-pentanoylamino}-propionic acid tert-butyl ester] |
| 55% | CC(C)C[C@H](NC(=O)Nc1ccc(Cl)cc1Cl)C(=O)N[C@@H](Cc1ccc(OCc2ccccc2)cc1)C(=O)OC(C)(C)C (relative stereo) [Example 82, [S-(R*,R*)]-3-(4-Benzyloxy-phenyl)-2-{2-[3-(2,4-dichloro-phenyl)-ureido]-4-methyl-pentanoylamino}-propionic acid tert-butyl ester] |
| 19% | CC(C)C[C@H](NC(=O)Nc1cc(C(F)(F)F)cc(C(F)(F)F)c1)C(=O)N[C@@H](Cc1ccc(OCc2ccccc2)cc1)C(=O)OC(C)(C)C (relative stereo) [Example 83, [S-(R*,R*)]-3-(4-Benzyloxy-phenyl)-2-{2-[3-(3,5-bis-trifluoromethyl-phenyl)-ureido]-4-methyl-pentanoylamino}-propionic acid tert-butyl ester] |
| 49% | CC(C)C[C@H](NC(=O)Nc1ccc(Br)cc1)C(=O)N[C@@H](Cc1ccc(OCc2ccccc2)cc1)C(=O)OC(C)(C)C (relative stereo) [Example 84, [S-(R*,R*)]-3-(4-Benzyloxy-phenyl)-2-{2-[3-(^4-bromo-phenyl)-ureido]-4-methyl-pentanoylamino}-propionic acid tert-butyl ester] |
| 30% | CC(C)C[C@H](NC(=O)Nc1ccc(Cl)c(Cl)c1)C(=O)N[C@@H](Cc1ccc(OCc2ccccc2)cc1)C(=O)OC(C)(C)C (relative stereo) [Example 85, [S-(R*,R*)]-3-(4-Benzyloxy-phenyl)-2-{2-[3-(3,4-dichloro-phenyl)-ureido]-4-methyl-pentanoylamino}-propionic acid tert-butyl ester] |
| 40% | CC(C)C[C@H](NC(=O)Nc1cc(Cl)cc(Cl)c1)C(=O)N[C@@H](Cc1ccc(OCc2ccccc2)cc1)C(=O)OC(C)(C)C (relative stereo) [Example 86, [S-(R*,R*)]-3-(4-Benzyloxy-phenyl)-2-{2-[3-(3,5-dichloro-phenyl)-ureido]-4-methyl-pentanoylamino}-propionic acid tert-butyl ester] |
| 37% | CC(C)C[C@H](NC(=O)NC(C)C)C(=O)N[C@@H](Cc1ccc(OCc2ccccc2)cc1)C(=O)OC(C)(C)C (relative stereo) [Example 87, [S-(R*,R*)]-3-(4-Benzyloxy-phenyl)-2-[2-(3-isopropyl-ureido)-4-methyl-pentanoylamino]-propionic acid tert-butyl ester] |
| 30% | CNC(=O)N[C@@H](CC(C)C)C(=O)N[C@@H](Cc1ccc(OCc2ccccc2)cc1)C(=O)OC(C)(C)C (relative stereo) [Example 88, [S-(R*,R*)]-3-(4-Benzyloxy-phenyl)-2-[4-methyl-2-(3-methyl-ureido)-pentanoylamino]-propionic acid tert-butyl ester] |
| 30% | CCNC(=O)N[C@@H](CC(C)C)C(=O)N[C@@H](Cc1ccc(OCc2ccccc2)cc1)C(=O)OC(C)(C)C (relative stereo) [Example 89, [S-(R*,R*)]-3-(4-Benzyloxy-phenyl)-2-[2-(3-ethyl-ureido)-4-methyl-pentanoylamino]-propionic acid tert-butyl ester] |
| 37% | CC(C)C[C@H](NC(=O)c1ccco1)C(=O)C[C@H](Cc1ccc(OCc2ccccc2)cc1)C(=O)OC(C)(C)C (relative stereo) [Example 90, [S-(R*,R*)]-2-(4-Benzyloxy-benzyl)-5-[(furan-2-carbonyl)-amino]-7-methyl-4-oxo-octanoic acid tert-butyl ester] |
| 34% | CCOc1ccc(C(=O)N[C@@H](CC(C)C)C(=O)N[C@@H](Cc2ccc(OCc3ccccc3)cc2)C(=O)OC(C)(C)C)cc1 (relative stereo) [Example 91, [S-(R*,R*)]-3-(4-Benzyloxy-phenyl)-2-[2-(4-ethoxy-benzoylamino)-4-methyl-pentanoylamino]-propionic acid tert-butyl ester] |

| Compound | Inhibition of Calcium Flux in IMR-32 Cells % Inhibition at 1 μM |
| --- | --- |
| CCOC(=O)c1ccc(NC(=O)N[C@@H](CC(C)C)C(=O)N[C@@H](Cc2ccc(OCc3ccccc3)cc2)C(=O)OC(C)(C)C)cc1 (relative stereo) [Example 77, [S-(R*,R*)]-4-(3-{1-[2-(4-Benzyloxy-phenyl)-1tert-butoxycarbonyl-ethylcarbamoyl]-3-methylbutyl}-ureido)-benzoic acid ethyl ester] | 22% |

Same assay, conditions: 10 μM

| Inhibition of Calcium Flux in IMR-32 Cells % Inhibition at 10 μM | Compound |
| --- | --- |
| 83% | CC(C)C[C@H](NC(=O)c1ccco1)C(=O)C[C@H](Cc1ccc(OCc2ccccc2)cc1)C(=O)OC(C)(C)C (relative stereo) [Example 90, [S-(R*,R*)]-2-(4-Benzyloxy-benzyl)-5-[(furan-2-carbonyl)-amino]-7-methyl-4-oxo-octanoic acid tert-butyl ester] |
| 48% | CCOc1ccc(C(=O)N[C@@H](CC(C)C)C(=O)N[C@@H](Cc2ccc(OCc3ccccc3)cc2)C(=O)OC(C)(C)C)cc1 (relative stereo) [Example 91, [S-(R*,R*)]-3-(4-Benzyloxy-phenyl)-2-[2-(4-ethoxy-benzoylamino)-4-methyl-pentanoylamino]-propionic acid tert-butyl ester] |
